Laboratory results published in ChEMBL document CHEMBL5442219.

Legend:
Conditions in all cases: Compound concentration 10 µM
[1] = target: Kappa-type opioid receptor (Homo sapiens) (UniProt P41145)
Description: PDSP Primary Binding target: OPRK1 - Compounds are tested at 10 uM concentration, plate are incubated at room temperature in the dark for 90 minutes. Reaction are stopped by vacuum filtration onto 0.3% polyethyleneimine soaked filter mats using Filtermate harvester. Scintilation cocktail is then melted onto microwave-dried filters on a hot plate and the radio activity is counted in Microbia counter.

[2] = target: T1, 5-hydroxytryptamine receptor 3A (Homo sapiens) (UniProt P46098)
T1 sequence (whole entry): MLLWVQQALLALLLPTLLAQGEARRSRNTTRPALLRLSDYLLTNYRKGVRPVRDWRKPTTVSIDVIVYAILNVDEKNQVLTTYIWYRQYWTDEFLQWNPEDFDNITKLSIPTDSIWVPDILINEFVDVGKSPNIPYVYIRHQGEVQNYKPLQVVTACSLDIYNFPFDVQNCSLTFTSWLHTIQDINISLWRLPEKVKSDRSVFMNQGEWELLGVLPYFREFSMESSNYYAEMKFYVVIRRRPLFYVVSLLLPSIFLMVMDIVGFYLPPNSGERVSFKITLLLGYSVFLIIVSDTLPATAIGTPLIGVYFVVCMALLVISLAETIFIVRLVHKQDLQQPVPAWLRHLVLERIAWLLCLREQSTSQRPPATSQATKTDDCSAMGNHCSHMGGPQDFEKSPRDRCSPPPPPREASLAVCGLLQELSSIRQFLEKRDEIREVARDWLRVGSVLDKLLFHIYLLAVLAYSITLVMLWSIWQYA
Description: PDSP Primary Binding target: HTR3A - Compounds are tested at 10 uM concentration, plate are incubated at room temperature in the dark for 90 minutes. Reaction are stopped by vacuum filtration onto 0.3% polyethyleneimine soaked filter mats using Filtermate harvester. Scintilation cocktail is then melted onto microwave-dried filters on a hot plate and the radio activity is counted in Microbia counter.

[3] = target: Delta-type opioid receptor (Homo sapiens) (UniProt P41143)
Description: PDSP Primary Binding target: OPRD1 - Compounds are tested at 10 uM concentration, plate are incubated at room temperature in the dark for 90 minutes. Reaction are stopped by vacuum filtration onto 0.3% polyethyleneimine soaked filter mats using Filtermate harvester. Scintilation cocktail is then melted onto microwave-dried filters on a hot plate and the radio activity is counted in Microbia counter.

[4] = target: Translocator protein (Homo sapiens) (UniProt P30536)
Description: PDSP Primary Binding target: TSPO - Compounds are tested at 10 uM concentration, plate are incubated at room temperature in the dark for 90 minutes. Reaction are stopped by vacuum filtration onto 0.3% polyethyleneimine soaked filter mats using Filtermate harvester. Scintilation cocktail is then melted onto microwave-dried filters on a hot plate and the radio activity is counted in Microbia counter.

[5] = target: Mu-type opioid receptor (Homo sapiens) (UniProt P35372)
Description: PDSP Primary Binding target: OPRM1 - Compounds are tested at 10 uM concentration, plate are incubated at room temperature in the dark for 90 minutes. Reaction are stopped by vacuum filtration onto 0.3% polyethyleneimine soaked filter mats using Filtermate harvester. Scintilation cocktail is then melted onto microwave-dried filters on a hot plate and the radio activity is counted in Microbia counter.

[6] = target: T2, Muscarinic acetylcholine receptor M5 (Homo sapiens) (UniProt P08912)
T2 sequence (whole entry): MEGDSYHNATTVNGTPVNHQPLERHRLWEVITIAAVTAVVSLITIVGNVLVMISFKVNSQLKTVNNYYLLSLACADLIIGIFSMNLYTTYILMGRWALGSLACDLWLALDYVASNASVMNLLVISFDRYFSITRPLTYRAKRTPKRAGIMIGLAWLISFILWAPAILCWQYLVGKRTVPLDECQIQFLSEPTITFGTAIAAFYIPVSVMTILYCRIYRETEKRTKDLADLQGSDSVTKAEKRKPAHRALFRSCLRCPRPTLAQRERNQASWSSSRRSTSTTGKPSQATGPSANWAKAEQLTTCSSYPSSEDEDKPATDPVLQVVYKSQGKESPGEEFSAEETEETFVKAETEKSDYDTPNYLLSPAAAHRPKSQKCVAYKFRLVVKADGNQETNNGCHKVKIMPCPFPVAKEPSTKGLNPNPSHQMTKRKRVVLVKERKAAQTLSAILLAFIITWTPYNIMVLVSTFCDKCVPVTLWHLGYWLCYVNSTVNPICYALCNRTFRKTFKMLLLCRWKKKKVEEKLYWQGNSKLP
Description: PDSP Primary Binding target: CHRM5 - Compounds are tested at 10 uM concentration, plate are incubated at room temperature in the dark for 90 minutes. Reaction are stopped by vacuum filtration onto 0.3% polyethyleneimine soaked filter mats using Filtermate harvester. Scintilation cocktail is then melted onto microwave-dried filters on a hot plate and the radio activity is counted in Microbia counter.

[7] = target: Beta-2 adrenergic receptor (Homo sapiens) (UniProt P07550)
Description: PDSP Primary Binding target: ADRB2 - Compounds are tested at 10 uM concentration, plate are incubated at room temperature in the dark for 90 minutes. Reaction are stopped by vacuum filtration onto 0.3% polyethyleneimine soaked filter mats using Filtermate harvester. Scintilation cocktail is then melted onto microwave-dried filters on a hot plate and the radio activity is counted in Microbia counter.

[8] = target: T3, Alpha-2B adrenergic receptor (Homo sapiens) (UniProt P18089)
T3 sequence (whole entry): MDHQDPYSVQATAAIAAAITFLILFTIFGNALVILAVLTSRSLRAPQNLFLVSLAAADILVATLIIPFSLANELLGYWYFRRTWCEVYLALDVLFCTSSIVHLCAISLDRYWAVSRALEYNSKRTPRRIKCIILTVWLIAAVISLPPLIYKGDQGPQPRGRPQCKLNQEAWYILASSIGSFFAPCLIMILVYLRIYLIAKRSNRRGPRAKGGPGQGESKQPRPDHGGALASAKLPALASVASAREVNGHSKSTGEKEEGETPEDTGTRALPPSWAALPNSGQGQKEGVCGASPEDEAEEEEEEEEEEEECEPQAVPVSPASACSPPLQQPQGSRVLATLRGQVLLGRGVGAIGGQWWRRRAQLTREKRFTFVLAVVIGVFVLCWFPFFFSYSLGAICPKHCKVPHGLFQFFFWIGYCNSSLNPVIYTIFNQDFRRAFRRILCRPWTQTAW
Description: PDSP Primary Binding target: ADRA2B - Compounds are tested at 10 uM concentration, plate are incubated at room temperature in the dark for 90 minutes. Reaction are stopped by vacuum filtration onto 0.3% polyethyleneimine soaked filter mats using Filtermate harvester. Scintilation cocktail is then melted onto microwave-dried filters on a hot plate and the radio activity is counted in Microbia counter.

[9] = target: Sodium-dependent noradrenaline transporter (Homo sapiens) (UniProt P23975)
Description: PDSP Primary Binding target: SLC6A2 - Compounds are tested at 10 uM concentration, plate are incubated at room temperature in the dark for 90 minutes. Reaction are stopped by vacuum filtration onto 0.3% polyethyleneimine soaked filter mats using Filtermate harvester. Scintilation cocktail is then melted onto microwave-dried filters on a hot plate and the radio activity is counted in Microbia counter.

[10] = target: Sigma non-opioid intracellular receptor 1 (Homo sapiens) (UniProt Q99720)
Description: PDSP Primary Binding target: SIGMAR1 - Compounds are tested at 10 uM concentration, plate are incubated at room temperature in the dark for 90 minutes. Reaction are stopped by vacuum filtration onto 0.3% polyethyleneimine soaked filter mats using Filtermate harvester. Scintilation cocktail is then melted onto microwave-dried filters on a hot plate and the radio activity is counted in Microbia counter.

[11] = target: 5-hydroxytryptamine receptor 6 (Homo sapiens) (UniProt P50406)
Description: PDSP Primary Binding target: HTR6 - Compounds are tested at 10 uM concentration, plate are incubated at room temperature in the dark for 90 minutes. Reaction are stopped by vacuum filtration onto 0.3% polyethyleneimine soaked filter mats using Filtermate harvester. Scintilation cocktail is then melted onto microwave-dried filters on a hot plate and the radio activity is counted in Microbia counter.

[12] = target: Sodium-dependent dopamine transporter (Homo sapiens) (UniProt Q01959)
Description: PDSP Primary Binding target: SLC6A3 - Compounds are tested at 10 uM concentration, plate are incubated at room temperature in the dark for 90 minutes. Reaction are stopped by vacuum filtration onto 0.3% polyethyleneimine soaked filter mats using Filtermate harvester. Scintilation cocktail is then melted onto microwave-dried filters on a hot plate and the radio activity is counted in Microbia counter.

[13] = target: T4, Alpha-1B adrenergic receptor (Homo sapiens) (UniProt P35368)
T4 sequence (whole entry): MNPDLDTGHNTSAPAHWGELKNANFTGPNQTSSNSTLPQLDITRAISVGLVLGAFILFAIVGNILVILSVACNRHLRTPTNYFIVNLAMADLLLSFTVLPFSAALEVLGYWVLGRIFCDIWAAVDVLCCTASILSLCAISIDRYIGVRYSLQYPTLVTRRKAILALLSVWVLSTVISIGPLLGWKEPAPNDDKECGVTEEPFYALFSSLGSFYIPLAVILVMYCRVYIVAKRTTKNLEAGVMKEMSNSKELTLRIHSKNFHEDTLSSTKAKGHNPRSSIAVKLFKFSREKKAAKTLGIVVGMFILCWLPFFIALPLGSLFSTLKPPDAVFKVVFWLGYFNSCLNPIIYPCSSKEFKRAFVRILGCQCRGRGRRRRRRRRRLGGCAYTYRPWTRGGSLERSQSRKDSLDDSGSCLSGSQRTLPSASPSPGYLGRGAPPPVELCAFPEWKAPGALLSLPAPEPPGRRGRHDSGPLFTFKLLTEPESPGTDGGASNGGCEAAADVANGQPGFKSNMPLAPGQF
Description: PDSP Primary Binding target: ADRA1B - Compounds are tested at 10 uM concentration, plate are incubated at room temperature in the dark for 90 minutes. Reaction are stopped by vacuum filtration onto 0.3% polyethyleneimine soaked filter mats using Filtermate harvester. Scintilation cocktail is then melted onto microwave-dried filters on a hot plate and the radio activity is counted in Microbia counter.

Sequence of Kappa-type opioid receptor (Homo sapiens) (P41145 whole entry): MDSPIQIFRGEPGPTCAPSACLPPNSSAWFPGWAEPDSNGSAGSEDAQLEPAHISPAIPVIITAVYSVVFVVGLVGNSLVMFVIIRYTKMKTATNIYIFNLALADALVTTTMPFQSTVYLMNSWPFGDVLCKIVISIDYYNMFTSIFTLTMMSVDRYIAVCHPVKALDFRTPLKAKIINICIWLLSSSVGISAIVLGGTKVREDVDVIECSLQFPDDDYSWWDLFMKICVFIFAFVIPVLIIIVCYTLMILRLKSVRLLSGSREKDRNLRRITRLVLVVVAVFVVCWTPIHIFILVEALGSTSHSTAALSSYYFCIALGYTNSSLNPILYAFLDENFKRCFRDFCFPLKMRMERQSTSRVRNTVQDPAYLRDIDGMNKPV
Sequence of Beta-2 adrenergic receptor (Homo sapiens) (P07550 whole entry, looked up): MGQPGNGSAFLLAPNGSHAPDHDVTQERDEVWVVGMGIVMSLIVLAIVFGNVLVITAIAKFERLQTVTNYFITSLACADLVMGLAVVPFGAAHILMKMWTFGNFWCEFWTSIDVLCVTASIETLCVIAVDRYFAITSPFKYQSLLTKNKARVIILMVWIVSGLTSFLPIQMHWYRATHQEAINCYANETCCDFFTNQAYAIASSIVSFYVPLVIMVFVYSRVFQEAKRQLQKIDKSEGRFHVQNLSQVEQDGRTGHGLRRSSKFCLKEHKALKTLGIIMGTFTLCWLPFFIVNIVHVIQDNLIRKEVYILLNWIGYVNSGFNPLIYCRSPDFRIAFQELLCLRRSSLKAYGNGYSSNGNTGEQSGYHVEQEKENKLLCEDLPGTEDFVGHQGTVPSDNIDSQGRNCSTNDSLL
Sequence of Sodium-dependent dopamine transporter (Homo sapiens) (Q01959 whole entry): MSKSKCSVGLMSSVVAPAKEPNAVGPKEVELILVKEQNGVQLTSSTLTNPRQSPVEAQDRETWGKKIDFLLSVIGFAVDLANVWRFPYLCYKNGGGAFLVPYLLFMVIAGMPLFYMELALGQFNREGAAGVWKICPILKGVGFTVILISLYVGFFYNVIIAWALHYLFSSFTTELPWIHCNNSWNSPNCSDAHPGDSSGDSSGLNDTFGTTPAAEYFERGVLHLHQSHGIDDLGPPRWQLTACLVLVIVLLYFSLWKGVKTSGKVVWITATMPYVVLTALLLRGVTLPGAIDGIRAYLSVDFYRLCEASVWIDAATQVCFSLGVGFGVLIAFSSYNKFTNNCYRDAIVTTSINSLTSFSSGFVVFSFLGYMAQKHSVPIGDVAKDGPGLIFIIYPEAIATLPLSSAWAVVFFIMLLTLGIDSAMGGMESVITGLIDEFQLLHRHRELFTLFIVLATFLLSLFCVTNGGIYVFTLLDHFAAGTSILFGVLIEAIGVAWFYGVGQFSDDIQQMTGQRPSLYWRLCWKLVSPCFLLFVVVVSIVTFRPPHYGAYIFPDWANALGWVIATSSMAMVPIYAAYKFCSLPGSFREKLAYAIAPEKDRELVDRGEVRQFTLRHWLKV
Sequence of Mu-type opioid receptor (Homo sapiens) (P35372 whole entry): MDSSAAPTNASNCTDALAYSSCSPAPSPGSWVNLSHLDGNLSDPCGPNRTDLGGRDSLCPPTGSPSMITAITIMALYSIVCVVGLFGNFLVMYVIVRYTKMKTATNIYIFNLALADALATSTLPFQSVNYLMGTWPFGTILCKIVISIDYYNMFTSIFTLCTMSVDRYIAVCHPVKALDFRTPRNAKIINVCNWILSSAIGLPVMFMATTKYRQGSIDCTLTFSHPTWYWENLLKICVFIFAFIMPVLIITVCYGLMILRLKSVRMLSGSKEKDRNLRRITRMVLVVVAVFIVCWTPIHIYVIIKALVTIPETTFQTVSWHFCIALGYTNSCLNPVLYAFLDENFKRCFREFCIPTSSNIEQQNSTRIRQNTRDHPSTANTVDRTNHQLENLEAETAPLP
Sequence of Sigma non-opioid intracellular receptor 1 (Homo sapiens) (Q99720 whole entry): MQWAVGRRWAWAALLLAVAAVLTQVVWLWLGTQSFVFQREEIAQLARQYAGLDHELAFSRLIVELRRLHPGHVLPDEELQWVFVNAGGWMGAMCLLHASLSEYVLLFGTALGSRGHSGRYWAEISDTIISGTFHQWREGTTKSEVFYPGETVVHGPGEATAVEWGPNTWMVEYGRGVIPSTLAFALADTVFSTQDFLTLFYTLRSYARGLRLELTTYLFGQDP
Sequence of Translocator protein (Homo sapiens) (P30536 whole entry): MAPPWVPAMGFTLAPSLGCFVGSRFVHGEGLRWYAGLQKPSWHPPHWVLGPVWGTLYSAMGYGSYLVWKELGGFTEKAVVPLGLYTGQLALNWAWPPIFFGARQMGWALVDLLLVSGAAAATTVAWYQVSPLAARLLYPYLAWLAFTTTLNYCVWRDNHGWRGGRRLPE
Sequence of 5-hydroxytryptamine receptor 6 (Homo sapiens) (P50406 whole entry): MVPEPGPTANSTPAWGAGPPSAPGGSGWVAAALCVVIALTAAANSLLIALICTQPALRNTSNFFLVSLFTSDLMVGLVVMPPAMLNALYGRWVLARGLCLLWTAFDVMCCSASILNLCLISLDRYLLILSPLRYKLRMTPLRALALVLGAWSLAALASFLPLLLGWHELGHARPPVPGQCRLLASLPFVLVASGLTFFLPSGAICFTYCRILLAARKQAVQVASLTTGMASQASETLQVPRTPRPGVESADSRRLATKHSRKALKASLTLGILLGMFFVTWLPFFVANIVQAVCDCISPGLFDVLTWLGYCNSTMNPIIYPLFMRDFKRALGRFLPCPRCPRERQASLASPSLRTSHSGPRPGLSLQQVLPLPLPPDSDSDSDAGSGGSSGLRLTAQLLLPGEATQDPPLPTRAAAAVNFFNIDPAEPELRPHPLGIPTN
Sequence of Sodium-dependent noradrenaline transporter (Homo sapiens) (P23975 whole entry): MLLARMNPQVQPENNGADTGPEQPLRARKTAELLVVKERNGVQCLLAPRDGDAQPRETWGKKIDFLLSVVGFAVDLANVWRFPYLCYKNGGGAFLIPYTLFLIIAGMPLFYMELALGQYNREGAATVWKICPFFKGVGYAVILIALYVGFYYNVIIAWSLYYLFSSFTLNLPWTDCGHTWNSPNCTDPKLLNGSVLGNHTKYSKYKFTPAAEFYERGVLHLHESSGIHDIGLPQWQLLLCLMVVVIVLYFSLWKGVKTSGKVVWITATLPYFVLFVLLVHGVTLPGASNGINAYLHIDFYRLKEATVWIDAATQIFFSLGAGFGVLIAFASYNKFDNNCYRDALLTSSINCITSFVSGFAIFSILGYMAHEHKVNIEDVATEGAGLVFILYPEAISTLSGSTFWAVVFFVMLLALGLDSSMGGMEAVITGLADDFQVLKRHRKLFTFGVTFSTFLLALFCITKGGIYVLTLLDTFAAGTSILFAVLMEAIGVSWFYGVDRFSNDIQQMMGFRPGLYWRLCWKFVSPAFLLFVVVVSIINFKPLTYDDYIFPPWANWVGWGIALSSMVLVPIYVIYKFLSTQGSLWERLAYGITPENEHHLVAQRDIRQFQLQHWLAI
Sequence of Delta-type opioid receptor (Homo sapiens) (P41143 whole entry): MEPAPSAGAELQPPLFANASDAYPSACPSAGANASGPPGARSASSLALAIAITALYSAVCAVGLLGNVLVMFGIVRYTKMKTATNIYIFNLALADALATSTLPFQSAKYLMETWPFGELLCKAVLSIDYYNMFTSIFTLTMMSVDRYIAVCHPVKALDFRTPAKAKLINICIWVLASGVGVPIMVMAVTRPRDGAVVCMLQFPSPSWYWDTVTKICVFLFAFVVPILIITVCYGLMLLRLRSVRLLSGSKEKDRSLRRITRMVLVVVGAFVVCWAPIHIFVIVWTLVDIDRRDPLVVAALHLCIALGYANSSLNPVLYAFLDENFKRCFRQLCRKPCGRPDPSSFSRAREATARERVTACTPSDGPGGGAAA

SMILES	inhibition [1]	inhibition [2]	inhibition [3]	inhibition [4]	inhibition [5]	inhibition [6]	inhibition [7]	inhibition [8]	inhibition [9]	inhibition [10]	inhibition [11]	inhibition [12]	inhibition [13]
O=S1(=O)c2cccc3cccc(c23)N1CCCN1CCN(c2ccc(F)cc2)CC1	56%	32.9%	8.66%	28.7%	43%	15.9%	21.3%	104%	65.1%	89.3%	52.9%	75.8%	98.1%
Cc1nc2sccn2c(=O)c1CCN1CCC(=C(c2ccc(F)cc2)c2ccc(F)cc2)CC1	65.8%	4.51%	17.7%	31.2%	63.5%	-0.02%	1.44%	84%	53.7%	87.3%	98.1%	68.9%	95.9%
